The text below walks through data of ChEMBL document CHEMBL1201862, “PubChem BioAssay data set” (2004).

SMILES strings stand for the structures.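 Results reflect a 48-hour exposure of cells in 96-well plates to compound at five concentrations. The concentration for 50% growth inhibition is given as GI50.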 Calls of active or inactive are those of the source. Cut-off read from the data, not from the text of the source: active = GI50 up to about 1.1 µM and inactive = higher.

Test systems include NCI/ADR-RES; DU-145; MOLT-4; KM12; HOP-62; SNB-75; SK-MEL-28; CAKI-1; U-251; SK-MEL-5; SF-268; NCI-H460; MCF7; HCC 2998; HT-29; COLO 205; NCI-H522; LOX IMVI; SN12C.
Holding throughout (assay): inhibition of tumour cell growth, NCI panel, 48 h

Regarding `O=C1C=C(O)C(=O)c2c(O)ccc(O)c21`, the GI50 with NCI/ADR-RES, in the experiment with DU-145, with MOLT-4, in the experiment with KM12, with HOP-62 and in the experiment on SNB-75 was > 100 µM (inactive) in each case. The GI50 in the experiment on SK-MEL-28, in the experiment on CAKI-1, with U-251, in the experiment with SK-MEL-5, with SF-268 and in the experiment on NCI-H460 was > 100 µM (inactive) throughout. For the same compound, the GI50 with MCF7 is > 100 µM (inactive); in the experiment on HCC 2998, > 100 µM (inactive); in the experiment on HT-29, 51.9 µM (inactive); in the experiment with COLO 205, 92 µM (inactive); in the experiment with NCI-H522 it was > 100 µM (inactive); in the experiment on LOX IMVI it was > 100 µM (inactive).
In the case of `COc1ccc(-c2cc3c(nn2)-c2ccccc2C3=O)cc1`, the GI50 in the experiment on NCI/ADR-RES is > 10 µM (inactive); in the experiment with SN12C, > 10 µM (inactive); in the experiment with DU-145, > 10 µM (inactive); in the experiment with KM12, > 10 µM (inactive); with HOP-62 it was > 10 µM (inactive); with SNB-75, 0.845 µM (active). The GI50 in the experiment with SK-MEL-28, with CAKI-1, in the experiment on U-251, with SK-MEL-5, in the experiment on SF-268 and in the experiment with NCI-H460 was > 10 µM (inactive) in each case. The GI50 in the experiment with MCF7 is 8.93 µM (inactive); with HCC 2998, > 10 µM (inactive); in the experiment with HT-29, > 10 µM (inactive); in the experiment with COLO 205, > 10 µM (inactive); in the experiment on NCI-H522 it was > 10 µM (inactive); in the experiment with LOX IMVI, > 10 µM (inactive).
For the compound `C/C(=C\CO)CC[C@@H]1[C@@]2(C)CCCC(C)(C)[C@@H]2CC[C@@]1(C)O`, the GI50 is 17.1 µM (inactive) in the experiment with NCI/ADR-RES; 17.5 µM (inactive) in the experiment on SN12C; 18 µM (inactive) with DU-145; 51.8 µM (inactive) in the experiment with MOLT-4; 19.2 µM (inactive) in the experiment on KM12; 17.7 µM (inactive) in the experiment with SNB-75. The GI50 in the experiment on SK-MEL-28 is 22.3 µM (inactive); in the experiment on CAKI-1, 28.6 µM (inactive); with U-251, 17.3 µM (inactive); with SK-MEL-5, 17.9 µM (inactive); in the experiment on SF-268, 17.7 µM (inactive); with NCI-H460, 17.3 µM (inactive). The GI50 was 17.1 µM (inactive) in the experiment with MCF7; 16 µM (inactive) in the experiment on HCC 2998; 21.3 µM (inactive) in the experiment on HT-29; 17.7 µM (inactive) in the experiment on COLO 205; 16.7 µM (inactive) in the experiment on NCI-H522; 16.1 µM (inactive) in the experiment on LOX IMVI.
Take `Nc1cc(S(=O)(=O)O)cc2ccc(S(=O)(=O)O)cc12`: the GI50 in the experiment on NCI/ADR-RES, in the experiment with SN12C, with DU-145, in the experiment on KM12, in the experiment with HOP-62 and in the experiment with SNB-75 was > 100 µM (inactive) each time. Besides, the GI50 in the experiment with SK-MEL-28, in the experiment on CAKI-1, in the experiment on U-251, in the experiment with SK-MEL-5, with SF-268 and with NCI-H460 was > 100 µM (inactive) in each case. Moreover, the GI50 in the experiment on MCF7, in the experiment with HCC 2998, in the experiment on HT-29, in the experiment with COLO 205, in the experiment on NCI-H522 and in the experiment on LOX IMVI was > 100 µM (inactive) each time.
